Results published in patent US10065957B2, “Beta-lactamase inhibitors” (Novartis AG, priority 2016, dated 2018).
In brackets after ≈: the same amount, converted by molar mass.

Legend:
Assay type in all cases: cell-based
E. coli (OXA-18) = assay: microbe, parasite or virus in culture; conditions: for MIC of aztreonam with beta-lactamase inhibitor: AZ + BLI at 2 μg/mL; for Activity of Beta-Lactam 5 with beta-lactamase inhibitor: Beta-Lactam 5 + BLI at 2 μg/mL; for MIC of ceftazidime with beta-lactamase inhibitor: Ceft + BLI at 2 μg/mL; for MIC of meropenem with beta-lactamase inhibitor: Mero + BLI at 2 μg/mL; for MIC of piperacillin with beta-lactamase inhibitor: Pip + BLI at 2 μg/mL
Procedure: (§1) MICs were determined by the broth microdilution method in accordance with Clinical and Laboratories Institute (CLSI) guidelines. In brief, fresh overnight bacterial cultures were suspended in sterile saline, and adjusted to a 0.5 McFarland turbidity standard. Bacterial suspensions were then diluted in cation adjusted Mueller-Hinton Broth (MHB II; BBL) to yield a final inoculum of approximately 5×10^5 colony-forming units (CFU)/mL. A master plate of antibiotics was prepared at a concentration equivalent to hundred-fold the highest desired final concentration in 100% dimethyl sulfoxide (DMSO). The master antibiotic plate was then diluted by serial twofold dilution with a multichannel pipette. The resulting dilution series of compounds were diluted 1:10 with sterile water or a solution of beta-lactamase inhibitor prepared at a concentration equivalent to eleven-fold the desired final concentration in deionized water leading to a 10% DMSO final concentration. A volume of 10 μL of the drug dilution series was transferred to 96-well assay plates. Assay plates were inoculated with 90 μL of bacterial suspensions and incubated at 35° C. for 20 hrs. The assay plates were read using a microtiter plate reader (Molecular Devices) at 600 nm as well as by visual observation with a reading mirror. The lowest concentration of the compound that prevented visible growth was recorded as the MIC.
(§2) Synergy or potentiation of beta-lactam antibiotics through inhibition of Q-lactamases was assessed against an isogenic panel of E. coli strains, each expressing a unique beta-lactamase, and against clinical strains.
(§3) Construction of E. coli isogenic strains, NB27273-CDY0105 (OXA-18) and NB27273-CDY0048 (TEM-10). […] The gene encoding OXA-18 was then digested with XhoI and EcoRI and inserted into this vector, from which the gene for GIM-1 had been removed with XhoI and EcoRI.
(§4) These final vectors for expression of OXA-18 and TEM-10 were transformed into BW25113 pspB to generate strains NB27273-CDY0105 (expressing OXA-18) and NB27273-CDY0048 (expressing TEM-10).

E. coli (CTX-M-15) = assay: microbe, parasite or virus in culture; conditions: for MIC of aztreonam with beta-lactamase inhibitor: AZ + BLI at 2 μg/mL; for Activity of Beta-Lactam 5 with beta-lactamase inhibitor: Beta-Lactam 5 + BLI at 2 μg/mL; for MIC of ceftazidime with beta-lactamase inhibitor: Ceft + BLI at 2 μg/mL; for MIC of meropenem with beta-lactamase inhibitor: Mero + BLI at 2 μg/mL
Procedure: as §1, §2
(§5) Strain NB27273 (BW25113 pspB::Km^r) was obtained from the Keio transposon insertion collection. The strain has the pspB gene replaced by a kanamycin resistance marker (BW25113 pspB::Km^r). This strain was cured of the transposon in pspB via FLP recombinase using published methodology. The resulting strain, BW25113 pspB, was used as a host for multicopy vectors expressing key beta-lactamases. Multicopy plasmids directing constitutive expression of beta-lactamases were established as follows: Synthetic, codon optimized genes encoding E. coli KPC-2, SHV-12 and CTX-M-15 beta-lactamases were made by DNA2.0 (Palo Alto, Calif.). Each of the synthetic fragments were designed to contain NotI and NcoI restriction sites at their termini, allowing ligation into a NotI/NcoI digested pET28a(+) derivative for protein expression. […] The codon optimized nucleotide sequences and relevant primer recognition information is shown below:
(§6) The PCR products were then digested with XhoI and EcoRI and ligated into similarly digested plasmid pAH63-pstS(BlaP). […] Therefore, expression of beta-lactamases from pAH63-pstS(BlaP) based constructs is constitutive and the signal sequence is provided to direct these proteins to the periplasm. […] These fragments were then digested with XbaI and EcoRI, and each was inserted into pBAD18-kan that had been digested with the same enzymes to generate multicopy vectors expressing KPC-2, SHV-12 and CTX-M-15, respectively. These vectors were transformed into BW25113 pspB to generate strains NB27273-CDY0033 (expressing KPC-2), NB27273-CDY0030 (expressing SHV-12), NB27273-CDY0034 (expressing CTX-M-15) and NB27273-CDY0036 (expressing AmpC). The pBAD18-kan vector also contains the TEM promoter region and signal sequence, (but lacks any intact beta-lactamase genes) and was transformed into BW25113 pspB using standard protocols to generate the control strain NB27273-CDY0026.

E. coli (KPC-2) = assay: microbe, parasite or virus in culture; conditions: E. coli (KPC-2); for MIC of aztreonam with beta-lactamase inhibitor: AZ + BLI at 2 μg/mL; for Activity of Beta-Lactam 5 with beta-lactamase inhibitor: Beta-Lactam 5 + BLI at 2 μg/mL; for MIC of ceftazidime with beta-lactamase inhibitor: Ceft + BLI at 2 μg/mL; for MIC of meropenem with beta-lactamase inhibitor: Mero + BLI at 2 μg/mL
Procedure: as §1, §2, §5, §6

E. coli (SHV-12) = assay: microbe, parasite or virus in culture; conditions: for MIC of aztreonam with beta-lactamase inhibitor: AZ + BLI at 2 μg/mL; for Activity of Beta-Lactam 5 with beta-lactamase inhibitor: Beta-Lactam 5 + BLI at 2 μg/mL; for MIC of ceftazidime with beta-lactamase inhibitor: Ceft + BLI at 2 μg/mL; for MIC of meropenem with beta-lactamase inhibitor: Mero + BLI at 2 μg/mL
Procedure: as §1, §2, §5, §6

K. pneumoniae ATCC 43816 = assay: MIC by broth microdilution, BLI alone; conditions: Klebsiella pneumoniae, ATCC43816, read-out: Minimal Inhibitory Concentrations (MIC) of selected BLIs
Procedure: as §1, with “MIC. Performance of the assay was monitored by testing aztreonam against laboratory quality control strains in accordance with guidelines of the CLSI.” for “MIC.”

E. coli ATCC 25922 = assay: MIC by broth microdilution, BLI alone; conditions: Escherichia coli, ATCC25922, read-out: Minimal Inhibitory Concentrations (MIC) of selected BLIs
Procedure: as §1, with “MIC. Performance of the assay was monitored by testing aztreonam against laboratory quality control strains in accordance with guidelines of the CLSI.” for “MIC.”

P. aeruginosa ATCC 27853 = assay: MIC by broth microdilution, BLI alone; conditions: Pseudomonas aeruginosa, ATCC27853, read-out: Minimal Inhibitory Concentrations (MIC) of selected BLIs
Procedure: as §1, with “MIC. Performance of the assay was monitored by testing aztreonam against laboratory quality control strains in accordance with guidelines of the CLSI.” for “MIC.”

E. coli (TEM-10) = assay: microbe, parasite or virus in culture; conditions: for MIC of aztreonam with beta-lactamase inhibitor: AZ + BLI at 2 μg/mL; for Activity of Beta-Lactam 5 with beta-lactamase inhibitor: Beta-Lactam 5 + BLI at 2 μg/mL; for MIC of ceftazidime with beta-lactamase inhibitor: Ceft + BLI at 2 μg/mL; for MIC of meropenem with beta-lactamase inhibitor: Mero + BLI at 2 μg/mL
Procedure: as §1, §2, §3
From this template DNA, three fragments were generated by PCR using the following primer pairs;
This fragment was then digested with XbaI and EcoRI and inserted into pBAD-kan which was also cut with the same enzymes.
as §4

| SMILES | MIC of aztreonam with beta-lactamase inhibitor (E. coli (OXA-18)) | Activity of Beta-Lactam 5 with beta-lactamase inhibitor (E. coli (OXA-18)) | MIC of ceftazidime with beta-lactamase inhibitor (E. coli (OXA-18)) | MIC of meropenem with beta-lactamase inhibitor (E. coli (OXA-18)) | MIC of piperacillin with beta-lactamase inhibitor (E. coli (OXA-18)) | MIC of aztreonam with beta-lactamase inhibitor (E. coli (CTX-M-15)) | Activity of Beta-Lactam 5 with beta-lactamase inhibitor (E. coli (CTX-M-15)) | MIC of ceftazidime with beta-lactamase inhibitor (E. coli (CTX-M-15)) | MIC of meropenem with beta-lactamase inhibitor (E. coli (CTX-M-15)) | MIC of aztreonam with beta-lactamase inhibitor (E. coli (KPC-2)) | Activity of Beta-Lactam 5 with beta-lactamase inhibitor (E. coli (KPC-2)) | MIC of ceftazidime with beta-lactamase inhibitor (E. coli (KPC-2)) | MIC of meropenem with beta-lactamase inhibitor (E. coli (KPC-2)) | MIC of aztreonam with beta-lactamase inhibitor (E. coli (SHV-12)) | Activity of Beta-Lactam 5 with beta-lactamase inhibitor (E. coli (SHV-12)) | MIC of ceftazidime with beta-lactamase inhibitor (E. coli (SHV-12)) | MIC of meropenem with beta-lactamase inhibitor (E. coli (SHV-12)) | MIC (K. pneumoniae ATCC 43816) | MIC (E. coli ATCC 25922) | MIC (P. aeruginosa ATCC 27853) | further results |
| --- | --- | --- | --- | --- | --- | --- | --- | --- | --- | --- | --- | --- | --- | --- | --- | --- | --- | --- | --- | --- | --- |
| NC(=O)[C@@H]1CC[C@@H]2CN1C(=O)N2OS(=O)(=O)O [Avibactam] | 1 µg/mL | 0.125 µg/mL | 0.5 µg/mL | ≤0.06 µg/mL | 2 µg/mL | 0.125 µg/mL | 0.25 µg/mL | 0.25 µg/mL | ≤0.06 µg/mL | 0.125 µg/mL | 0.125 µg/mL | 0.25 µg/mL | ≤0.06 µg/mL | 1 µg/mL | 0.125 µg/mL | 0.5 µg/mL | ≤0.06 µg/mL | 32 µg/mL (≈ 121 µM) | 16 µg/mL (≈ 60.3 µM) | > 64 µg/mL | MIC of aztreonam with beta-lactamase inhibitor (E. coli (TEM-10)): 0.25 µg/mL; Activity of Beta-Lactam 5 with beta-lactamase inhibitor (E. coli (TEM-10)): 0.125 µg/mL; MIC of ceftazidime with beta-lactamase inhibitor (E. coli (TEM-10)): 1 µg/mL; MIC of meropenem with beta-lactamase inhibitor (E. coli (TEM-10)): ≤0.06 µg/mL |
| O=C1NC[C@@H]2C[C@@H]3CN(C(=O)N3OS(=O)(=O)[O-])[C@H]12.[Na+] [Example 1, Sodium (4R,5aS,8aS)-2,8-dioxohexahydro-2H-1,4-methanopyrrolo[3,4-d][1,3]diazepin-3(4H)-yl sulfate] | 1 µg/mL | 0.25 µg/mL | 0.5 µg/mL | ≤0.06 µg/mL | 2 µg/mL | ≤0.06 µg/mL | 0.25 µg/mL | 0.25 µg/mL | ≤0.06 µg/mL | 0.125 µg/mL | 0.25 µg/mL | 0.125 µg/mL | ≤0.06 µg/mL | 0.25 µg/mL | 0.25 µg/mL | 0.25 µg/mL | ≤0.06 µg/mL | > 64 µg/mL | > 64 µg/mL | > 64 µg/mL | MIC of aztreonam with beta-lactamase inhibitor (E. coli (TEM-10)): 0.125 µg/mL; Activity of Beta-Lactam 5 with beta-lactamase inhibitor (E. coli (TEM-10)): 0.125 µg/mL; MIC of ceftazidime with beta-lactamase inhibitor (E. coli (TEM-10)): 0.25 µg/mL; MIC of meropenem with beta-lactamase inhibitor (E. coli (TEM-10)): ≤0.06 µg/mL |
| O=C(NC1CCNCC1)[C@@H]1CC[C@@H]2CN1C(=O)N2OS(=O)(=O)O [Relebactam] | >64 µg/mL | 0.25 µg/mL | >64 µg/mL | ≤0.06 µg/mL | >32 µg/mL | 0.5 µg/mL | 0.25 µg/mL | 0.5 µg/mL | ≤0.06 µg/mL | 1 µg/mL | 0.125 µg/mL | 0.25 µg/mL | ≤0.06 µg/mL | 32 µg/mL | 0.125 µg/mL | 8 µg/mL | ≤0.06 µg/mL | > 64 µg/mL | > 64 µg/mL | > 64 µg/mL | MIC of aztreonam with beta-lactamase inhibitor (E. coli (TEM-10)): 2 µg/mL; Activity of Beta-Lactam 5 with beta-lactamase inhibitor (E. coli (TEM-10)): 0.25 µg/mL; MIC of ceftazidime with beta-lactamase inhibitor (E. coli (TEM-10)): 8 µg/mL; MIC of meropenem with beta-lactamase inhibitor (E. coli (TEM-10)): ≤0.06 µg/mL |
